Data on one molecule can be found in patent US11779582B2, “Composition for preventing or treating metastatic ovarian cancer, endometrial cancer or breast cancer” (LEMONEX INC., priority 2017, dated 2023).

What all share (assay type): cell-based
The subject of series [1] is phosphorylated AKT and XIAP in SKOV3-TR ovarian cancer cells. The experiment in a line: immunostaining of AKT down-signal mechanism. As to conditions: BGJ398 treatment, paclitaxel alone or in combination with BGJ398 (FIG. 27). The method, then: FIG. 27 illustrates results of identifying whether there is expression of AKT, phosphorylated AKT, BAD, phosphorylated BAD, XIAP, CASP9, p42/44 and/or phosphorylated p42/44, in order to determine AKT down-signal mechanism in relation to cell survival and cell apoptosis in the cells when paclitaxel alone or in combination with BGJ398 was administered to SKOV3-TR ovarian cancer cells. […] The reason of this fact is considered because a level of XIAP expression in the cells is decreased thus to improve paclitaxel sensitivity.

Series [2] relates to AKT phosphorylation and PARP cleavage in SKOV3-TR ovarian cancer cells. The experiment in a line: PathScan Intracellular Signaling Array Kit. Particulars: BGJ398 in combination with paclitaxel (FIG. 26).
Series [3] deals with SKOV3ip1-TR ovarian cancer cells. The experiment in a line: microscopic analysis of cell shape change. Particulars: BGJ398 in combination with paclitaxel (FIG. 21). The method, then:
FIG. 21 illustrates a change in cell shape, when paclitaxel alone, BGJ398 alone or in combination with […] was administered to the SKOV3ip1-TR ovarian cancer cells.

Series [4] has as its system SKOV3-TR ovarian cancer cells. The experiment in a line: FACS assay of DNA content (propidium iodide), Sub-G1. How it is done:
More particularly, the degree of cell apoptosis can be confirmed when DNA content in the cell is treated by propidium iodide (PI) staining and is assessed by FACS. If cell apoptosis occurs, genes in the cells are disrupted and Sub-Gi region below G1 is increased.
FIG. 23 graphically illustrates FACS results, which were divided by a cell cycle in the same experiments described above. Referring to this figure, it can be seen that the treatment using 2.5 μM BGJ398 in combination with 50 nM paclitaxel increases Gub-G1 cells in SKOV-TR cells by about 2.5 times, compared to 50 nM paclitaxel alone, thereby improving anticancer activity.

The test system of series [5] is sphere cultured SKOV3ip1 ovarian cancer cells. The experiment in a line: crystal violet cell viability, 3D sphere culture. The method, then: For 3D sphere culture, SKOV3ip1 cells (1×10^6) were dispensed on ultra-low adherent 6-well plate (Corning NY, USA), and then, cultured in 5% CO2 incubator using RPMI 1640 medium supplemented with 10% fetal bovine serum (Gibco, NY, USA) and 10 U/ml penicillin/streptomycin (Gibco).
In order to assess the cell viability in the sphere cultured cells, the SKOV3ip1 cells (5×10^4) were dispensed on the super-low adherent 24-well plate and cultured overnight. The cells were harvested from each well and the commercial 24-well plate was moved, followed by further incubation for 12 hours. The adhered and visualized cells were stained with 0.2% crystal violet solution for 20 minutes while gently agitating the same. The stained cells were washed with distilled water until a clean background is observed. For assessment using a colorimeter, the crystal violet dye was extracted with 1% SDS/PBS and absorbance was measured at 570 nm wavelength by EMax PLUS microplate reader (Molecular Device, USA).
The monolayer cultured or sphere cultured SKOV3ip1 cells were treated with the tyrosine kinase inhibitor and paclitaxel for 72 hours, the cell viability was determined by the crystal violet colorimeter, and results thereof are shown in FIG. 3.
Since the cell survival of the sphere cultured SKOV3ip1 cells is inhibited by BGJ398 treatment, whether such cell survival inhibition is intermediated through JAK/STAT3 signaling pathway was further examined. For this purpose, the selective JAK tyrosine kinase inhibitor AG490 was used at different concentrations of 3.125 to 50 μM in order to treat the monolayer cultured or sphere cultured SKOV3ip1 cells, and after 72 hours, whether it affects the cell viability and AKT and STAT3 activation was examined through crystal violet staining and immunostaining assay, and results thereof are shown in FIG. 7. Actin was used as a loading control group.
Under this ground, when administering BGJ398 in combination with paclitaxel typically used as the existing primary anticancer drug for ovarian cancer, whether paclitaxel resistance of the sphere cultured cells is overcome and improved was determined.

For series [6], the system named is HEC1B endometrial cancer cell line (3D sphere culture). The experiment in a line: morphological analysis and crystal violet staining, 3D sphere culture. The method, then: (§1) With respect to the cancer cell lines listed in Table 1 below, synergistic effects of paclitaxel and BGJ398 were further examined. According to the same procedures as described in the previous examples, each cell line was divided and cultured by 2D monolayer culture and 3D sphere culture, respectively. Then, a change due to BGJ398 administration was analyzed through morphological analysis and crystal violet staining assay. All cell lines were purchased from ATCC and used in the present experiments, and detailed information thereof are shown in Table 3 below.
(§2) With respect to the cancer cell lines listed in Table 2 below, synergistic effects of paclitaxel and BGJ398 were further examined. According to the same procedures as described in the previous examples, each cell line was divided and cultured by 2D monolayer culture and 3D sphere culture, respectively. Then, a change due to administration of BGJ398 alone or in combination with paclitaxel was analyzed through morphological analysis.

For series [7], the system named is Hs578T breast cancer cell line (3D sphere culture). The series is described as above. How it is done: as §1, §2
The subject of series [8] is HEC1B endometrial cancer cell line (2D monolayer culture). The experiment in a line: crystal violet staining and morphology, paclitaxel in combination with BGJ398. How it is done:
as §2

The test system of series [9] is Hs578T breast cancer cell line (2D monolayer culture). The series is described as above. The method, then:
as §2

With `CCN1CCN(c2ccc(Nc3cc(N(C)C(=O)Nc4c(Cl)c(OC)cc(OC)c4Cl)ncn3)cc2)CC1` [BGJ398, 3-(2,6-dichloro-3,5-dimethoxyphenyl)-1-[6-[4-(4-ethylpiperazin-1yl)anilino]pyrimidin-4-yl]-1-methylurea], the XIAP expression entry in series [1] is recorded as “XIAP expression is reduced”. Also, the “level of phosphorylated AKT” value in series [1] was “significantly decreased”. Also, the “cleaved PARP” value in series [2] is on record as “increasing the cleaved PARP”. Moreover, the “phosphorylation of AKT at serine 473” value in series [2] was “phosphoylation of AKT at serine 473 is reduced”. Moreover, the “paclitaxel resistance / anticancer activity (cell shape)” value in series [3] is listed as “can block paclitaxel resistance, thereby increasing anticancer activity”. Also, the “increase of Sub-G1 cells” value in series [4] (2.5 μM BGJ398 in combination with 50 nM paclitaxel, compared to 50 nM paclitaxel alone (FIG. 23)) is listed as “about 2.5 times”. Further, the “apoptotic cells (region below G1, Sub-G1)” value in series [4] (BGJ398 in combination with paclitaxel (FIG. 22)) is listed as “the number of apoptotic cells is increased”. For the same molecule, in series [5] (3D cultured SKOV3ip1, 1.25 and 5 μM BGJ398 with paclitaxel vs BGJ398 untreated group), the paclitaxel sensitivity entry is given as “increased paclitaxel sensitivity in a dose-dependent manner”. Further, in series [5] (3D sphere cultured SKOV3ip1, 1 μM BGJ398, Day 3), the cytotoxicity result was “showed cytotoxicity”. The cell viability result in series [5] (sphere cultured SKOV3ip1, 72 hours, different concentrations, crystal violet colorimeter (FIG. 3)) was “reduced the cell viability in a dose-dependent manner”. Further, the cell apoptosis result was “higher cell apoptosis than the cells treated with paclitaxel alone” in series [5] (sphere cultured SKOV3ip1, paclitaxel in combination with BGJ398 vs paclitaxel alone, 72 hours (FIG. 8)); “cell apoptosis can be found” in [6] (sphere cultured HEC1B, BGJ398 alone); “cell apoptosis can be found” in series [7] (sphere cultured Hs578T, BGJ398 alone); “cell apoptosis is further increased” in series [8] (HEC1B, BGJ398 in combination with paclitaxel (FIGS. 10 and 11)); “cell apoptosis is further increased” in series [9] (Hs578T, BGJ398 in combination with paclitaxel (FIGS. 13 and 14)). Besides, the “cytotoxicity, cell sphere morphology” value in series [6] (3D sphere culture HEC1B, BGJ398 alone or in combination with paclitaxel) was “cell spheres are collapsed”; in series [7] (3D sphere culture Hs578T, BGJ398 alone or in combination with paclitaxel), “cell spheres are collapsed”. Moreover, the “effect on anticancer effects of paclitaxel” value in series [8] (2D monolayer HEC1B, BGJ398 in combination with paclitaxel (FIG. 10)) was “enhance anticancer effects of paclitaxel”; in series [9] (2D monolayer Hs578T, BGJ398 in combination with paclitaxel (FIG. 13)), “enhance anticancer effects of paclitaxel”.
